One series deals with Piglets. The note with it: compared with L-lysine hydrochloride; cited from earlier work.
For series [1] the following is noted: temperature range at which the trihydrate precipitates (35° C. and below).

On to `NCCCC[C@H](N)C(=O)O.NCCCC[C@H](N)C(=O)O.O=S(=O)(O)O` [diL-lysine sulfate], for which the feed effects result in the series on Piglets is recorded as “equivalent to those of L-lysine hydrochloride”.

As for `NCCCC[C@H](N)C(=O)O.NCCCC[C@H](N)C(=O)O.O.O.O.O=S(=O)(O)O` [diL-lysine monosulfate trihydrate], in series [1], the “degree of solubility in water versus the solubility curve of anhydrous diL-lysine sulfate (FIG. 4)” value is “lower than the degree of solubility that would be anticipated from the solubility curve of anhydrous diL-lysine sulfate”.
